The nature of this data set: in vitro. The note with it: human, hela cells, % viability.

For `CC(C)(O)C(=O)NCc1nc2c(s1)CC(c1ccccc1)CC2` (stereo not shown) [CBK304165], the viability at 28.5 h, 10 µM turned out to be 77.3%.
Consider `Cc1cnn(C2CCCN(C(=O)CCCc3cccs3)C2)c1` (stereo not shown) [CBK304168], for which the viability at 28.5 h, 10 µM came to 96.3%.
`CCOC(=O)CN1CC(O)CC1c1cccc(C(F)(F)F)c1` (stereo not shown) [CBK304169]: the viability at 28.5 h, 10 µM is 97.9%.
For the compound `Cc1nn(C)c(C)c1CN1CCOC(c2nc(C(C)(C)C)cs2)C1` (stereo not shown) [CBK304170], the viability at 28.5 h, 10 µM came to 85.6%.
For `COCCc1noc(CC2CCN(c3ncc(Cl)cn3)CC2)n1` [CBK304172], the viability at 28.5 h, 10 µM was 88.7%.
For `CCn1ncnc1CN(c1cccc(CO)c1)C1Cc2ccccc2C1` [CBK304173], the viability at 28.5 h, 10 µM is 111%.
The same measure, in the same setting: with `CCOC(=O)C(NC(=O)c1cn[nH]c1)c1cccc(C)c1C` (stereo not shown) [CBK304175] the figure was 92.8%.
Regarding `CCc1nn(C)cc1CNC1CCCN(c2ccc(C#N)cc2)C1=O` (stereo not shown) [CBK304176], the viability at 28.5 h, 10 µM was determined as 96.4%.
On the same count and under the same terms, with `COCCc1noc(CC2CCN(c3nc(C)cc(C#N)n3)CC2)n1` [CBK304179] the figure was 88.5%.
`CSc1nnnn1-c1cccc(NC(=O)N2CCCN(C)CC2)c1` [CBK304180]: the viability at 28.5 h, 10 µM came out at 78.1%.
Still for that read-out and setting: the figure for `Cc1cc(NC(=O)CN(C)c2ncccc2C#N)no1` [CBK304182] is 77.7%; for `CSc1ccccc1C(=O)Nc1sc2c(c1C#N)CCN(C(C)=O)C2` [CBK304183] it is 55.3%.
Regarding `CC(C(=O)NC1CCCN(CC(F)(F)F)C1)n1cnc2ccccc21` (stereo not shown) [CBK304185], the viability at 28.5 h, 10 µM turned out to be 96.6%.
In the case of `O=C1NC2(CCOCC2)C(=O)N1Cc1ncc(-c2cccs2)o1` [CBK304187], the viability at 28.5 h, 10 µM came out at 92%.
Regarding `COCCn1c(SCC(=O)N2CCCc3ccccc32)nc(O)cc1=O` [CBK304191], the viability at 28.5 h, 10 µM is 59.5%.
In the case of `Cc1ccsc1C(=O)Nc1ncn(CC(=O)N2CCCCCC2)n1` [CBK304192], the viability at 28.5 h, 10 µM was determined as 92.5%.
On the same count and under the same terms, with `CCn1nc(C)c(CNC(=O)N(Cc2ccccn2)CC(C)C)c1C` [CBK304193] the figure was 92.1%.
Regarding `Cc1nccn1C1CCCN(C(C)C(=O)NC2(C#N)CCCCC2)C1` (stereo not shown) [CBK304194], the viability at 28.5 h, 10 µM came out at 87.3%.
Same read-out and setting: the figure for `CCn1cc(CN(CCO)C(=O)c2cccc(C#N)c2C)cn1` [CBK304196] is 109%; for `CCc1cc(=O)[nH]c(-c2ccc(N3CCCC3C(=O)N(C)C)nc2)n1` (stereo not shown) [CBK304197] it is 89.2%.
In the case of `Cc1nc(-c2cccnc2)[nH]c(=O)c1CCC(=O)N1CC2CCC1C2` (stereo not shown) [CBK304198], the viability at 28.5 h, 10 µM came to 82.3%.
Consider `CCOC(=O)c1cnc2ccc(OC)cc2c1NCCN1CCOCC1` [CBK304199], for which the viability at 28.5 h, 10 µM was 87.7%.
The same measure, in the same setting: the figure for `COc1c(C)[nH]cc(CN(C)CCC(=O)Nc2cccc(F)c2)c1=O` [CBK304201] is 90.5%; for `CC(C)CC(CO)Nc1ncnc2ccc(S(C)(=O)=O)cc12` (stereo not shown) [CBK304203] it is 107%.
The same measure, in the same setting: the figure for `CCOCC1CCN(C(=O)c2ncsc2Nc2ccccc2)C1` (stereo not shown) [CBK304204] is 117%; for `Cc1cc(NC(=O)N(Cc2cnn(C)c2)CC(C)C)ccc1F` [CBK304206] it is 105%; for `CC(Cn1cncn1)NC(=O)c1cccc(S(=O)(=O)NC2CCCC2)c1` (stereo not shown) [CBK304209] it is 89%.
Still for that read-out and setting: the figure for `CCOC(=O)C1CCCN(C(=O)Cn2cnc(-c3cccs3)cc2=O)C1` (stereo not shown) [CBK304210] is 89.3%; for `Cc1c(CN(C)CC(=O)Nc2ccc(Br)cc2Cl)cnn1C` [CBK304214] it is 86%.
Consider `CCc1ccc(C(O)CNC2CCN(c3nccs3)CC2)cc1` (stereo not shown) [CBK304215], for which the viability at 28.5 h, 10 µM amounted to 94.3%.
Still for that read-out and setting: the figure for `O=C(Nc1cc(N2CCCS2(=O)=O)ccc1F)c1n[nH]c2ccccc12` [CBK304216] is 80.5%; for `Cc1ccccc1Nc1nc(N)nc(CN2CCN(C)CC2)n1` [CBK304217] it is 89.9%.
As to `CC(C)Cn1cnc(S(=O)(=O)N2CCN(CC(=O)NC3CC3)CC2)c1` [CBK304223], the viability at 28.5 h, 10 µM amounted to 95.8%.
Same read-out and setting: with `CCn1cc(C2CN(S(=O)(=O)c3cc(C)c(OC)cc3C)CCO2)cn1` (stereo not shown) [CBK304225] the figure was 84.9%; with `CCn1cc(C2CN(S(=O)(=O)c3cccc(C)c3Cl)CCO2)cn1` (stereo not shown) [CBK304226], 91.3%; with `CCn1cc(C2CN(S(=O)(=O)c3cccc(C(C)C)c3)CCO2)cn1` (stereo not shown) [CBK304227], 105%.
Regarding `COCC(O)CN(C)C(=O)c1ccc(Oc2cccc(Br)c2)nc1` (stereo not shown) [CBK304229], the viability at 28.5 h, 10 µM is 94%.
On to `O=C(c1cnn(-c2ccc(Cl)cc2Cl)c1)N1CCOCC1c1ncon1` (stereo not shown) [CBK304231], for which the viability at 28.5 h, 10 µM turned out to be 84.5%.
With `CCn1cc(C2CN(S(=O)(=O)c3ccccc3OC(F)F)CCO2)cn1` (stereo not shown) [CBK304234], the viability at 28.5 h, 10 µM amounted to 106%.
As for `COC(=O)C1CCN(C(=O)c2ccc(Oc3cccc(Br)c3)nc2)CC1` [CBK304235], the viability at 28.5 h, 10 µM came out at 103%.
On the same count and under the same terms, with `O=C(c1cc(S(=O)(=O)N2CCOCC2)ccc1Cl)N1CCCC(CO)C1` (stereo not shown) [CBK304236] the figure was 104%; with `CCC(c1ccc2c(c1)CCO2)N1CCN(Cc2nc(C)no2)CC1` (stereo not shown) [CBK304237], 90.3%.
In the case of `CC1CNCCN1C(=O)c1cnn(-c2cccc(Cl)c2)c1` (stereo not shown) [CBK304238], the viability at 28.5 h, 10 µM is 94.1%.
For `CC(=O)Nc1cccc(NC(=O)CN(CCO)C2CCCCC2)c1` [CBK304239], the viability at 28.5 h, 10 µM amounted to 85.7%.
Take `CCN(CC)CCNC(=O)c1ccc(C(=O)O)c(C)n1` [CBK304248]: the viability at 28.5 h, 10 µM came out at 85.9%.
Regarding `Cc1nn(C)c(C)c1CNC(=O)N1CCN(CC(F)F)CC1` [CBK304249], the viability at 28.5 h, 10 µM stood at 102%.
For the compound `CN(CC1CCCOC1)C(=O)c1ncsc1Nc1ccccc1` (stereo not shown) [CBK304250], the viability at 28.5 h, 10 µM amounted to 94.4%.
The same measure, in the same setting: the figure for `Cc1ccccc1Nc1nc(CN2CCC3(CCCOC3)C2)cs1` (stereo not shown) [CBK304255] is 95%.
On the same count and under the same terms, with `O=C(NCC1(c2cccc(Br)c2)CCOCC1)C1CC(O)CN1` (stereo not shown) [CBK304257] the figure was 95.9%.
In the case of `CCc1onc(C)c1C(=O)N1CCN(C2CCNC2)CC1` (stereo not shown) [CBK304258], the viability at 28.5 h, 10 µM was determined as 96%.
As for `Cc1cnn(C)c1CN1CCNC(=O)C1c1ccccc1C(F)(F)F` (stereo not shown) [CBK304260], the viability at 28.5 h, 10 µM was 86.2%.
`N#Cc1ccc(CN2CCCCC2c2[nH]ncc2C(N)=O)c(Cl)c1` (stereo not shown) [CBK304261]: the viability at 28.5 h, 10 µM turned out to be 91.4%.
In the case of `CC1=CCCN(C(=O)C23CCOCC2CN(c2ncc(F)cn2)C3)C1` (stereo not shown) [CBK304263], the viability at 28.5 h, 10 µM amounted to 87.3%.
On the same count and under the same terms, with `O=C(N1CCC=C(F)C1)C12CCOCC1CN(c1ncccn1)C2` (stereo not shown) [CBK304264] the figure was 91.3%; with `CC(C)CCc1csc(C2CN3CCCC3CO2)n1` (stereo not shown) [CBK304266], 89.9%.
As for `Cc1nnc2n1CCN(CC1CCCCO1)C2` (stereo not shown) [CBK304267], the viability at 28.5 h, 10 µM amounted to 105%.
Same read-out and setting: with `CC(C)Oc1cc(Br)cc(C(=O)N2CCC(C(=O)O)C2)c1` (stereo not shown) [CBK304268C] the figure was 92.6%; with `Cc1ccc2c(CC(=O)N3CCNCC3c3cnn(C)c3)coc2c1C` (stereo not shown) [CBK304271C], 87%.
Same read-out and setting: the figure for `CCCCN=C(NCCCn1cccn1)N1CCCN(C(C)=O)CC1` [CBK304273I] is 107%; for `Cn1cc(C2CNCCN2C(=O)CCCc2csc3ccccc23)cn1` (stereo not shown) [CBK304274C] it is 89.9%.
On the same count and under the same terms, the figure for `CC(C)NC(=O)Cn1nnc(-c2cccc(C(F)(F)F)c2)n1` [CBK304275] is 95.2%; for `NC(=O)C1CCN(Cc2nc(-c3cccc(C(F)(F)F)c3)no2)CC1` [CBK304276] it is 97.4%; for `Cn1ccc(C(=O)NC2CCN(c3ncccn3)CC2)cc1=O` [CBK304280] it is 85.2%.
As to `CC(CN(C)C(=O)c1cocn1)Oc1ccc(Cl)c(Cl)c1` (stereo not shown) [CBK304285], the viability at 28.5 h, 10 µM came to 97.6%.
`CCCCN1C(=O)C(O)(c2c(C)nn(CCO)c2N)c2ccccc21` (stereo not shown) [CBK304286]: the viability at 28.5 h, 10 µM (bulk resorufin, single well) stood at 116%.
Take `C#CCN(C1CCc2ccccc21)S(=O)(=O)c1cc(C(N)=O)n(C)c1` (stereo not shown) [CBK304287]: the viability at 28.5 h, 10 µM worked out at 95.1%.
Regarding `COCCN(C(=O)c1cc2cc(C)ccc2s1)C1CCS(=O)(=O)C1` (stereo not shown) [CBK304289], the viability at 28.5 h, 10 µM stood at 87.3%.
As to `CC1CCc2c(C(=O)N3CCC4(C3)NC(=O)NC4=O)csc2C1` (stereo not shown) [CBK304290], the viability at 28.5 h, 10 µM worked out at 76.8%.
As to `NS(=O)(=O)c1ccc2c(c1)N(Cc1nc(-c3ccco3)no1)CC2` [CBK304291], the viability at 28.5 h, 10 µM is 71.9%.
Same read-out and setting: the figure for `Cn1nc2c(cc1=O)CN(C(=O)c1cnc(C(C)(C)C)nc1)CC2` [CBK304293] is 96.5%; for `O=C(NC1CCS(=O)(=O)C1)c1c[nH]c2ccccc2c1=O` (stereo not shown) [CBK304295] it is 88.7%; for `Cc1cc(NC(=O)C2CCN(C(=O)CNc3ccccc3)CC2)no1` [CBK304297C] it is 85.9%.
Still for that read-out and setting: the figure for `NC1CCN(C(=O)Cn2c3ccccc3c(=O)c3ccccc32)C1` (stereo not shown) [CBK304300C] is 94.3%.
Consider `CNCC1CCCN(Cc2cn(-c3ccc(Br)cc3)nc2C)C1` (stereo not shown) [CBK304301C], for which the viability at 28.5 h, 10 µM was 99.7%.
On the same count and under the same terms, the figure for `Cc1nn(C)c2ncc(S(=O)(=O)NCC(N)c3ccc(F)cc3F)cc12` (stereo not shown) [CBK304303C] is 99.1%; for `CCOCCn1c(N2CCCC(C)C2)nc2c1c(=O)[nH]c(=O)n2C` (stereo not shown) [CBK304304] it is 85.1%; for `COc1cc(CNC2CCCc3c2cnn3C)cc(OC)c1` (stereo not shown) [CBK304306C] it is 82.4%.
Same read-out and setting: the figure for `Cc1c(C(=O)N(C)Cc2cc3ccccc3o2)nnn1C1CCNCC1` [CBK304307C] is 96.4%; for `CCCN(C(=O)CCn1c(=O)oc2cc(Cl)ccc21)C1CCNC1` (stereo not shown) [CBK304311C] it is 90.5%; for `Cc1c(C(=O)N(C)Cc2nc(C(F)(F)F)cs2)nnn1C1CCNCC1` [CBK304315C] it is 106%.
On the same count and under the same terms, with `CC1(C)NC(=O)N(CC(O)Cn2c3ccccc3c3ccccc32)C1=O` (stereo not shown) [CBK304318] the figure was 86.8%.
As to `Cn1cc(C2CNCCN2C(=O)c2csc3ccccc23)cn1` (stereo not shown) [CBK304324C], the viability at 28.5 h, 10 µM was found to be 108%.

In general, viability refers to a read-out of living cells in per cent, often relative to untreated cells.

These data come from PMC12040169 (PLOS Biology, 2025).
